Assay results as given in patent US20220354752A1, “NANOFIBRE MATRIX MADE OF NATURAL POLYMERS WITH NATURAL FUNCTIONAL INGREDIENTS FOR COSMETIC PRODUCTS” (NANOLAYR LIMITED, priority 2019, published 2022).

Legend:
TNF-alpha = assay: Anti-inflammatory in vitro study: TNF-alpha in reconstructed epidermis treated with SDS; type: cell-based; settings: human reconstructed epidermis, 0.1% SDS, 24 hours incubation
Protocol: A human reconstructed epidermis is put in contact with the vegan nanofibres (topical application to mimic the real condition of use) and treated with an irritant inflammatory agent such as sodium dodecyl sulfate (SDS) to assess the capability of vegan nanofibers to counteract the inflammatory event. The evaluation is performed by using a non-treated epidermis as negative control and the epidermis treated only with the inflammatory agent (SDS) as a positive control. TNF-alpha is often associated with the inflammatory process and oxidative stress as an acute pro-inflammatory marker.

[1] = system: human epidermal melanocytes; assay: Brightening in vitro study: melanin production of melanocytes; type: cell-based; settings: kojic acid 42 μg/ml in cell culture, 96 hours incubation
Protocol: In vitro study is used to evaluate the brightening effect and is determined by analysing the melanin production of melanocytes. The level of melanin produced by melanocytes determines the colour of skin, therefore, the brightening effect can be evaluated by the impact of formulation on the melanin production of melanocytes. In this study, human epidermal melanocytes are utilised. Kojic acid, traditionally used as a brightening ingredient, is used as the positive control. Kojic add is prepared in 15% ethanol/Hanks balanced salt solution and added into cell culture to give final concentration of 42 μg/ml in cell culture. 0.8 cm circles of nanofibre is directly applied into the cell culture to give a final concentration of ethyl ascorbic add of 3 μg/ml in cell culture. FIG. 5 presents the result of melanin concentration in cells only, cells treated with kojic acid and cells treated with nanofibres after 96 hours incubation time.
The absorbance of each sample is read at 405 nm and then compared with a standard curve of synthetic melanin to estimate the concentration of melanin in the cell culture. […] The melanin concentration is 101.5 μg/ml in cells only, 101.1 μg/ml in cells with kojic add and 97.48 μg/ml in cells with nanofibres. […] This is probably due to the added kojic add concentration being very low. […]

Structure (SMILES)	concentration of TNF-alpha (TNF-alpha) [µg/mL]	inhibition to melanin production [1]	melanin concentration [1] [µg/mL]
CCCCCCCCCCCCOS(=O)(=O)[O-].[Na+] [SDS, sodium dodecyl sulfate]	47.92	–	–
O=c1cc(CO)occ1O [kojic acid]	–	slight inhibition to melanin production, but is not statistically significant	101.1
